Results taken from ChEMBL document CHEMBL5038674, “Structure-Activity Relationship of Anti-Mycobacterium abscessus Piperidine-4-carboxamides, a New Class of NBTI DNA Gyrase Inhibitors” (ACS Med Chem Lett, 2022).
Converted amounts (≈) assume the structure as drawn. One block for each compound: values may come before it. The source made the active and inactive calls. The rule behind the calls is not given here.

Assays:
[1] = Antimycobacterial activity against Mycobacterium abscessus subsp. abscessus bamboo strain assessed as inhibition of mycobacterial growth incubated for 3 days by broth microdilution method; type: functional; details: Mycobacteroides abscessus, 72 h, time 3 day
[2] = Lipophilicity, logP of compound; type: physicochemical; details: octanol/water
[3] = tested on: A-375; experiment: Cytotoxicity against human A375 cells assessed as reduction in cell viability upto 30 uM after 24 hrs by SRB assay; type: functional, cell-based; details: dose microM <=30, time 24.0 hrs
[4] = tested on: HT-29; experiment: Cytotoxicity against human HT-29 cells assessed as reduction in cell viability upto 30 uM after 24 hrs by SRB assay; type: functional, cell-based; details: dose microM <=30, time 24.0 hrs
[5] = tested on: MCF7; experiment: Cytotoxicity against human MCF7 cells assessed as reduction in cell viability upto 30 uM after 24 hrs by SRB assay; type: functional, cell-based; details: dose microM <=30, time 24.0 hrs
[6] = tested on: FaDu; experiment: Cytotoxicity against human FaDu cells assessed as reduction in cell viability upto 30 uM after 24 hrs by SRB assay; type: functional, cell-based; details: dose microM <=30, time 24.0 hrs
[7] = tested on: NIH3T3; experiment: Cytotoxicity against mouse NIH3T3 cells assessed as reduction in cell viability upto 30 uM after 24 hrs by SRB assay; type: toxicity, cell-based; details: nih3t3, 24 h
[8] = tested on: HEK293; experiment: Cytotoxicity against human HEK293 cells assessed as reduction in cell viability upto 30 uM after 24 hrs by SRB assay; type: toxicity, cell-based; details: hek293, 24 h
[9] = Inhibition of Mycobacterium abscessus DNA gyrase using pBR322 DNA as substrate […] by fluorescence based microplate reader assay; set-up: species or system Mycobacteroides abscessus
[10] = tested on: Mycobacteroides abscessus; experiment: Antimycobacterial activity against Mycobacterium abscessus ATCC 19977 assessed as inhibition of mycobacterial growth incubated for 3 days by broth microdilution method; type: functional; details: ATCC 19977, 72 h, time 3 day
[11] = Antimycobacterial activity against Mycobacterium abscessus subsp. bolletii CCUG 50184T assessed as inhibition of mycobacterial growth incubated for 3 days by broth microdilution method; type: functional; details: Mycobacteroides abscessus, 72 h, time 3 day
[12] = Antimycobacterial activity against Mycobacterium abscessus subsp. massiliense CCUG 48898T assessed as inhibition of mycobacterial growth incubated for 3 days by broth microdilution method; type: functional; details: Mycobacteroides abscessus, 72 h, time 3 day
[13] = tested on: Mycobacteroides abscessus; experiment: Antimycobacterial activity against Mycobacterium abscessus K21 assessed as inhibition of mycobacterial growth incubated for 3 days by broth microdilution method; type: functional; details: K21, 72 h, time 3 day
[14] = tested on: Mycobacterium avium; experiment: Antimycobacterial activity against Mycobacterium avium 11 assessed as inhibition of mycobacterial growth incubated for 3 days by broth microdilution method; type: functional; details: Mycobacterium avium, 11, 72 h; time 3 day
[15] = tested on: Staphylococcus aureus; experiment: Antibacterial activity against Staphylococcus aureus assessed as inhibition of bacterial growth incubated for 3 days by broth microdilution method; type: functional; details: 72 h, time 3 day
[16] = Stability of compound in CD1 mouse at 25 mg/kg, po by HPLC-MS/MS analysis; type: ADME, organism-based; details: in vivo
[17] = Stability of compound in CD1 mouse plasma assessed as parent compound remaining by QE-HRMS analysis; type: ADME, cell-free
[18] = biological target: hERG (KCNH2) (Homo sapiens, UniProt Q12809); experiment: Inhibition of human ERG at 10 uM; type: toxicity
Sequence of hERG (KCNH2) (Q12809 whole entry): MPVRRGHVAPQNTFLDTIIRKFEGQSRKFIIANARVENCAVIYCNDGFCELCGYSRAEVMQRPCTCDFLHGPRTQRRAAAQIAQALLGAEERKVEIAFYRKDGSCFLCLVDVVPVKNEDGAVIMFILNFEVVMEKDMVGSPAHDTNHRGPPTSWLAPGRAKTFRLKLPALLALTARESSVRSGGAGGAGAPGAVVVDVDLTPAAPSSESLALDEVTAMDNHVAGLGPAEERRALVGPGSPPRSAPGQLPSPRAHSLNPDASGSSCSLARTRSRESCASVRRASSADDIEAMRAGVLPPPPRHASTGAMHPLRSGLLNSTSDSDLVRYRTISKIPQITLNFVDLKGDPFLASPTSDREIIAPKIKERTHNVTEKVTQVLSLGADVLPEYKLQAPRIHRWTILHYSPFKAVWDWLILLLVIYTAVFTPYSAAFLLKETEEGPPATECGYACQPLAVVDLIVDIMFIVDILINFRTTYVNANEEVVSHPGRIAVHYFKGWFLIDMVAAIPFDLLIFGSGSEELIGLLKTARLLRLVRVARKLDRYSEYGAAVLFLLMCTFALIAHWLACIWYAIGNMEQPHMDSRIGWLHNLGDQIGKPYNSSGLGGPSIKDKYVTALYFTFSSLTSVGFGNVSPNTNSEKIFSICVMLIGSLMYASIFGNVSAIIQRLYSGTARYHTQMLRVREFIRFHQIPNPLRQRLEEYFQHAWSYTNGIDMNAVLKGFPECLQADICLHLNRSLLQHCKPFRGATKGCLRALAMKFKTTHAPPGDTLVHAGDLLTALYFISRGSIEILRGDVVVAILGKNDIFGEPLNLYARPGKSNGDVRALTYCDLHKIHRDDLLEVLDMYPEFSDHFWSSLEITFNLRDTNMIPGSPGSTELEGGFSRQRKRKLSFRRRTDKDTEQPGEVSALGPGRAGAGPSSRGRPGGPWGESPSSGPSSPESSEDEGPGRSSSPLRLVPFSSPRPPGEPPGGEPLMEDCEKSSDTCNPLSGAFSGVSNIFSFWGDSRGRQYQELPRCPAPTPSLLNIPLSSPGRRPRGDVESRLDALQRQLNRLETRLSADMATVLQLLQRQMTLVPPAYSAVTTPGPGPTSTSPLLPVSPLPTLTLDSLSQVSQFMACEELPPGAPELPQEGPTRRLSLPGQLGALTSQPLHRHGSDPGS

[19] = biological target: Voltage-gated inwardly rectifying potassium channel KCNH2 (Homo sapiens, UniProt Q12809); experiment: Inhibition of human ERG; type: toxicity
Sequence of Voltage-gated inwardly rectifying potassium channel KCNH2 (Q12809 whole entry): as above

[20] = tested on: Mycobacterium abscessus subsp. abscessus; experiment: Upregulation of RecA promoter activity in P4C resistant Mycobacterium abscessus subsp. abscessus ATCC 19977 mutant D91N assessed as bacterial DNA damage by luminescence assay; type: functional; details: time 3.0 day
[21] = tested on: Mycobacterium abscessus subsp. abscessus; experiment: Upregulation of RecA promoter activity in Mycobacterium abscessus subsp. abscessus ATCC 19977 assessed as bacterial DNA damage by luminescence assay; type: functional

SMILES: COc1ccc2nccc(NC(=O)C3(C)CCN(CCc4ccc(C(F)(F)F)cc4)CC3)c2n1
IC50 [9]: 6000 nM | MIC90 [1]: 3 µM (≈ 1.42 µg/mL) | logP [2]: 3.3 | MIC90 [10]: 3 µM (≈ 1.42 µg/mL) | MIC90 [11]: 6.4 µM (≈ 3.02 µg/mL) | MIC90 [12]: 8 µM (≈ 3.78 µg/mL) | MIC90 [13]: 8 µM (≈ 3.78 µg/mL) | MIC90 [14]: 6 µM (≈ 2.84 µg/mL) | MIC90 [15]: 1 µM (≈ 0.473 µg/mL) | Activity [3]: inactive | Activity [4]: inactive | Activity [5]: inactive | Activity [6]: inactive | Activity [7]: Non-Toxic | Activity [8]: Non-Toxic | Stability [16]: Stable | Stability [17]: Stable

SMILES: COc1ccc2nccc(NC(=O)C3CCN(CCc4ccc(Cl)cc4)CC3)c2c1
MIC90 [1]: 50 µM (≈ 21.2 µg/mL) | logP [2]: 2.8

SMILES: COc1ccc2nccc(NC(=O)C3CCN(CCc4cccc(F)c4)CC3)c2n1
MIC90 [1]: 25 µM (≈ 10.2 µg/mL) | logP [2]: 2.1

SMILES: COc1ccc2nccc(NC(=O)C3CCN(CCc4ccc(C(F)(F)F)c(F)c4)CC3)c2n1
MIC90 [1]: 0.6 µM (≈ 0.286 µg/mL) | logP [2]: 3.1 | MIC90 [10]: 0.6 µM (≈ 0.286 µg/mL) | MIC90 [11]: 1 µM (≈ 0.476 µg/mL) | MIC90 [12]: 1.5 µM (≈ 0.715 µg/mL) | MIC90 [13]: 2 µM (≈ 0.953 µg/mL) | MIC90 [14]: 0.8 µM (≈ 0.381 µg/mL) | MIC90 [15]: 0.5 µM (≈ 0.238 µg/mL) | Activity [3]: inactive | Activity [4]: inactive | Activity [5]: inactive | Activity [6]: inactive | Activity [7]: Non-Toxic | Activity [8]: Non-Toxic

SMILES: COc1ccc2nccc(NC(=O)C3CCN(CCc4ccc(C(F)(F)F)cc4)CC3)c2n1
IC50 [9]: 1500 nM | MIC90 [1]: 1.5 µM (≈ 0.688 µg/mL) | logP [2]: 2.9 | MIC90 [10]: 1.5 µM (≈ 0.688 µg/mL) | MIC90 [11]: 2 µM (≈ 0.917 µg/mL) | MIC90 [12]: 2 µM (≈ 0.917 µg/mL) | MIC90 [13]: 3.5 µM (≈ 1.6 µg/mL) | MIC90 [14]: 2.5 µM (≈ 1.15 µg/mL) | MIC90 [15]: 0.2 µM (≈ 0.0917 µg/mL) | Activity [3]: inactive | Activity [4]: inactive | Activity [5]: inactive | Activity [6]: inactive | Activity [7]: Non-Toxic | Activity [8]: Non-Toxic | inhibition at 10 µM [18]: 93% | Stability [16]: Stable | Stability [17]: Stable

SMILES: COc1c(N2C[C@@H]3CCCN[C@@H]3C2)c(F)cc2c(=O)c(C(=O)O)cn(C3CC3)c12 [MOXIFLOXACIN]
MIC90 [1]: 2 µM (≈ 0.803 µg/mL) | MIC90 [10]: 2 µM (≈ 0.803 µg/mL) | MIC90 [11]: 4 µM (≈ 1.61 µg/mL) | MIC90 [12]: 4 µM (≈ 1.61 µg/mL) | MIC90 [13]: 4 µM (≈ 1.61 µg/mL) | MIC90 [14]: 0.6 µM (≈ 0.241 µg/mL) | MIC90 [15]: 0.2 µM (≈ 0.0803 µg/mL)

SMILES: O=C1COc2ccc(CNC3CCN(CCn4c(=O)ccc5ccc(Oc6ccccn6)nc54)CC3)nc2N1
IC50 [9]: 110 nM | MIC [1]: 0.06 µM (≈ 0.0317 µg/mL) | IC50 [19]: 155000 nM

SMILES: COc1ccc2nccc(NS(=O)(=O)C3CCN(CCc4ccc(C(F)(F)F)cc4)CC3)c2n1
MIC90 [1]: 100 µM (≈ 49.5 µg/mL) | logP [2]: 2.4

SMILES: COc1ccc2nccc(NC(=O)C3CCN(CCc4cc(F)cc(F)c4)CC3)c2n1
MIC90 [1]: 50 µM (≈ 21.3 µg/mL) | logP [2]: 2.3

SMILES: COc1ccc2nccc(NC(=O)C3CCN(CCc4ccc(F)cc4F)CC3)c2n1
MIC90 [1]: 50 µM (≈ 21.3 µg/mL) | logP [2]: 2.3

SMILES: COc1ccc2nccc(NC(=O)[C@H]3CC[C@H](NCc4ccc(C(F)(F)F)cc4)CC3)c2n1
IC50 [9]: 1500 nM | MIC90 [1]: 0.4 µM (≈ 0.183 µg/mL) | logP [2]: 3.3 | MIC90 [10]: 0.4 µM (≈ 0.183 µg/mL) | MIC90 [11]: 1 µM (≈ 0.458 µg/mL) | MIC90 [12]: 1.2 µM (≈ 0.55 µg/mL) | MIC90 [13]: 2 µM (≈ 0.917 µg/mL) | MIC90 [14]: 2 µM (≈ 0.917 µg/mL) | MIC90 [15]: 0.7 µM (≈ 0.321 µg/mL) | Activity [3]: inactive | Activity [4]: inactive | Activity [5]: inactive | Activity [6]: inactive | Activity [7]: Non-Toxic | Activity [8]: Non-Toxic

SMILES: COc1ccc2nccc(NC(=O)C3CCN(CCc4cccc(F)c4F)CC3)c2n1
MIC90 [1]: 100 µM (≈ 42.6 µg/mL) | logP [2]: 2.3

SMILES: O=c1ccc2ncc(=O)n3c2n1C[C@H]3CN1CCC(NCc2cc3c(cn2)OCCC3)CC1 [GEPOTIDACIN]
IC50 [9]: 2000 nM | MIC90 [1]: 10 µM (≈ 4.49 µg/mL) | logP [2]: 0.1 | Activity [20]: inactive | Activity [21]: Active

SMILES: COc1ccc2nccc(NC(=O)C3CCN(CCc4c(F)cccc4F)CC3)c2n1
MIC90 [1]: 100 µM (≈ 42.6 µg/mL) | logP [2]: 2.3

SMILES: COc1cnc2ccc(=O)n(CCN3CCC(NCc4ccc(Cl)c(Cl)c4)CC3)c2c1
MIC [1]: < 0.02 µM | IC50 [19]: 1320 nM

SMILES: COc1ccc2nccc(NC(=O)C3CCN(CCc4ccccc4F)CC3)c2n1
MIC90 [1]: 50 µM (≈ 20.4 µg/mL) | logP [2]: 2.1

SMILES: COc1ccc2nccc(NC(=O)C3CCN(CCc4ccc(F)c(F)c4)CC3)c2n1
MIC90 [1]: 25 µM (≈ 10.7 µg/mL) | logP [2]: 2.3

SMILES: COc1ccc2nccc(NC(=O)CC3CCN(Cc4ccc(C(F)(F)F)cc4)CC3)c2n1
IC50 [9]: 40000 nM | MIC90 [1]: 100 µM (≈ 45.8 µg/mL) | logP [2]: 2.8

The next lines start with results.

MIC90 [1]: 12.5 µM (≈ 5.73 µg/mL) | logP [2]: 2.9
SMILES: COc1ccc2nccc(NC(=O)C3CCN(CCc4cccc(C(F)(F)F)c4)CC3)c2n1
Activity [3]: inactive | Activity [4]: inactive | Activity [5]: inactive | Activity [6]: inactive | Activity [7]: Non-Toxic | Activity [8]: Non-Toxic

IC50 [9]: 3000 nM | MIC90 [1]: 12 µM (≈ 5.1 µg/mL) | logP [2]: 2.6
SMILES: COc1ccc2nccc(NC(=O)C3CCN(CCc4ccc(Cl)cc4)CC3)c2n1
Activity [3]: inactive | Activity [4]: inactive | Activity [5]: inactive | Activity [6]: inactive

MIC90 [1]: 50 µM (≈ 20.4 µg/mL) | logP [2]: 2.1
SMILES: COc1ccc2nccc(NC(=O)C3CCN(CCc4ccc(F)cc4)CC3)c2n1

IC50 [9]: 3000 nM | MIC90 [1]: 3.12 µM (≈ 1.43 µg/mL) | logP [2]: 3.6
SMILES: COc1ccc2cccc(NC(=O)C3CCN(CCc4ccc(C(F)(F)F)cc4)CC3)c2n1
Activity [3]: inactive | Activity [4]: inactive | Activity [5]: inactive | Activity [6]: inactive | Activity [7]: Non-Toxic | Activity [8]: Non-Toxic

MIC90 [1]: 100 µM (≈ 42.1 µg/mL) | logP [2]: 1.9
SMILES: COc1ccc(CCN2CCC(C(=O)Nc3ccnc4ccc(OC)nc34)CC2)cc1

IC50 [9]: 6000 nM | MIC90 [1]: 100 µM (≈ 45.7 µg/mL) | logP [2]: 3
SMILES: COc1ccc2nccc(NC(=O)C3CCN(CCc4ccc(C(F)(F)F)cc4)CC3)c2c1

MIC90 [1]: 100 µM (≈ 47.4 µg/mL) | logP [2]: 4
SMILES: COc1ccc2nccc(NC(=O)C3CCN(CCc4ccc(OC(F)(F)F)cc4)CC3)c2n1

IC50 [9]: 3000 nM | MIC90 [1]: 50 µM (≈ 23.1 µg/mL) | logP [2]: 3.9
SMILES: O=C(Nc1cccc2ccc(Cl)nc12)C1CCN(CCc2ccc(C(F)(F)F)cc2)CC1
